For six compounds, MIC results are on record in patent US12491180B2, “Application of compound in treating pneumonia” (SHENZHEN OPTIMUM BIOLOGICAL TECHNOLOGY CO., LTD., priority 2019, dated 2025).

Holding throughout (test): MIC, solid dilution method
Holding throughout (format): cell-based

In test [1] the test system is Escherichia coli ATCC25922. To be noted: E. coli ATCC25922, standard strain, MHA agar, 37° C., 16-20 hours, read-out: MIC. As for the experimental part:
(§1) (1) Standard strains: Escherichia coli BAA-2452, Escherichia coli ATCC25922, Klebsiella pneumoniae BAA-1705; all purchased from ATCC.
(§2) The above-mentioned glycerol-preserved strains were taken out from the −80° C. refrigerator, streaked and inoculated on MHA plates, labeled, and cultured overnight in a 37° C. incubator.
(§3) The inoculum was prepared directly from bacterial suspension, and several recovered colonies were picked and directly prepared into a bacterial suspension with a turbidity of No. 0.5 McFarland units in normal saline, and a 10-fold dilution was made during inoculation.
(§4) 6 bottles of MHA culture medium 500 mL/bottle were prepared, and the pH was adjusted to 7.2-7.4, sterilized at 121° C. for 15 min, and the medium was placed in a 55° C. water bath to keep warm.
(§5) Sterile blank petri dishes were taken, and marked with each FL drug/concentration according to 2-fold dilution, and 10 concentrations of each drug starting from 8 μg/mL were tested.
(§6) […]; 20 mL was aspirated and added to a petri dish consistent with the mark, and then 20 mL of MHA culture medium was added to the rest of the drug-containing culture medium, mixed evenly, that is, the 2-fold diluted drug-containing culture medium; 20 mL was aspirated and added to the petri dish consistent with the mark, and then diluted to the 10th concentration and the […] respectively by repeating the above-mentioned steps, and then poured into the petri dish.
(§7) 4 bacterial control petri dishes without drug were prepared at the same time as a control.
(§8) The positioning needle and the inoculation needle were installed according to the order of placement of the colony on the inoculation plate. After inoculation, a bacterial solution circle was formed on the petri dish. After the bacterial solution was absorbed by the agar, the petri dish was placed in an incubator at 37° C. for overnight incubation (16-20 hours), and then taken out.
(§9) The minimum inhibitory concentrations of the compounds against the CRE and CSE strains were determined by the solid dilution method, and the results are shown in Tables 3 and 4.

In test [2] the test system is Escherichia coli BAA-2452. The settings on record: BAA2452, E. coli BAA-2452, standard strain, MHA agar, 37° C., 16-20 hours, read-out: MIC. As to the method:
as §1, §2, §3, §4, §5, §6, §7, §8, §9

The test system of test [3] is Klebsiella pneumoniae BAA-1705. To be noted: BAA1705, K.p BAA-1705, standard strain, MHA agar, 37° C., 16-20 hours, read-out: MIC. As to the method: as §1, §2, §3, §4, §5, §6, §7, §8, §9
Test [4] relates to Klebsiella pneumoniae 11544. To be noted: K.p 11544, CRE clinical isolate, MHA agar, 37° C., 16-20 hours, read-out: MIC. As to the method:
(§10) (2) Clinical isolated strains: CRE Klebsiella pneumoniae 5846, 11544, 12559, 13249 and CSE Klebsiella pneumoniae 8733, a total of 5 strains;
as §2, §3, §4, §5, §6, §7, §8, §9

Test [5] has as its system Klebsiella pneumoniae 12559. The settings on record: K.p 12559, CRE clinical isolate, MHA agar, 37° C., 16-20 hours, read-out: MIC. As to the method: as §10, §2, §3, §4, §5, §6, §7, §8, §9
The test system of test [6] is Klebsiella pneumoniae 13249. The settings on record: K.p 13249, CRE clinical isolate, MHA agar, 37° C., 16-20 hours, read-out: MIC. As to the method: as §10, §2, §3, §4, §5, §6, §7, §8, §9
For test [7], the system named is Klebsiella pneumoniae 5846. The settings on record: K.p 5846, CRE clinical isolate, MHA agar, 37° C., 16-20 hours, read-out: MIC. As for the experimental part: as §10, §2, §3, §4, §5, §6, §7, §8, §9
The test system of test [8] is Klebsiella pneumoniae 8733. The settings on record: K.p 8733, CSE clinical isolate, MHA agar, 37° C., 16-20 hours, read-out: MIC. As for the experimental part:
as §10, §2, §3, §4, §5, §6, §7, §8, §9

Each structure is given as a SMILES string. In brackets after ≈: the same amount, converted by molar mass.

As for `CC1(C)[C@H](NC(=O)/C(=N\O[C@@H](COc2ccc(C(=N)N[C@@H]3CCCNC3)cc2)C(=O)O)c2csc(N)n2)C(=O)N1OS(=O)(=O)O` [AIC499, reference compound], the MIC (usually the lowest concentration found to suppress growth) in test [1] is 0.03 µg/mL (≈ 0.0449 µM); in test [2], 0.5 µg/mL (≈ 0.748 µM); in test [3] it was 1 µg/mL (≈ 1.5 µM); in test [4] it was greater than 8 µg/mL; in test [5], 0.5 µg/mL (≈ 0.748 µM); in test [6] it was greater than 8 µg/mL. Besides, the MIC in test [7] and in test [8] was 0.25 µg/mL (≈ 0.374 µM) throughout.
Regarding `CC1(C)[C@H](NC(=O)/C(=N\O[C@@H](COc2ccc3c(c2)CN(C(=N)N(CCCN)CCCN)C3)C(=O)O)c2csc(N)n2)C(=O)N1OS(=O)(=O)O` [Compound 32], the MIC was less than 0.015 µg/mL in test [1]; 0.25 µg/mL (≈ 0.337 µM) in test [2]; 0.125 µg/mL (≈ 0.169 µM) in test [3]; 2 µg/mL (≈ 2.7 µM) in test [4]; 0.125 µg/mL (≈ 0.169 µM) in test [5]; 4 µg/mL (≈ 5.4 µM) in test [6]. In addition, the MIC in test [7] and in test [8] was 0.06 µg/mL (≈ 0.081 µM) each time.
For `CC1(C)[C@H](NC(=O)/C(=N\O[C@@H](COc2ccc3c(c2)CN(C(=N)N[C@@H]2CCCNC2)C3)C(=O)O)c2csc(N)n2)C(=O)N1OS(=O)(=O)O` [Compound 41], the minimum inhibitory concentration (MIC) in test [1] is less than 0.015 µg/mL; in test [2], 0.25 µg/mL (≈ 0.352 µM); in test [3], 0.25 µg/mL (≈ 0.352 µM); in test [4] it was greater than 8 µg/mL; in test [5], 0.125 µg/mL (≈ 0.176 µM); in test [6] it was greater than 8 µg/mL. The MIC in test [7] and in test [8] was 0.125 µg/mL (≈ 0.176 µM) throughout.
Turning to `CC1(C)[C@H](NC(=O)/C(=N\O[C@@H](COc2ccc3c(c2)CN(C(=N)NOCCN)C3)C(=O)O)c2csc(N)n2)C(=O)N1OS(=O)(=O)O` [Compound 43], the MIC was 0.06 µg/mL (≈ 0.0875 µM) in test [1]; 0.5 µg/mL (≈ 0.729 µM) in test [2]; 1 µg/mL (≈ 1.46 µM) in test [3]; greater than 8 µg/mL in test [4]; 0.5 µg/mL (≈ 0.729 µM) in test [5]; greater than 8 µg/mL in test [6]. Besides, the MIC in test [7] came out at 0.5 µg/mL (≈ 0.729 µM); in test [8], 0.25 µg/mL (≈ 0.365 µM).
For the compound `CC1(C)[C@H](NC(=O)/C(=N\O[C@@H](COc2ccc3c(c2)CN(C(=N)NCCN)C3)C(=O)O)c2csc(N)n2)C(=O)N1OS(=O)(=O)O` [Compound 44], the MIC in test [1] was less than 0.015 µg/mL; in test [2] it was 0.25 µg/mL (≈ 0.373 µM); in test [3] it was 0.25 µg/mL (≈ 0.373 µM); in test [4], 8 µg/mL (≈ 11.9 µM); in test [5] it was 0.125 µg/mL (≈ 0.187 µM); in test [6] it was 8 µg/mL (≈ 11.9 µM). Also, the results for the MIC in test [7] and in test [8] were 0.125 µg/mL (≈ 0.187 µM) and 0.06 µg/mL (≈ 0.0896 µM), respectively.
For the compound `CC1(C)[C@H](NC(=O)/C(=N\O[C@@H](COc2ccc3c(c2)CN(/C(=N\[C@@H]2CCCNC2)N[C@@H]2CCCNC2)C3)C(=O)O)c2csc(N)n2)C(=O)N1OS(=O)(=O)O` [Compound 46], the MIC is less than 0.015 µg/mL in test [1]; 0.25 µg/mL (≈ 0.315 µM) in test [2]; 0.5 µg/mL (≈ 0.631 µM) in test [3]; 8 µg/mL (≈ 10.1 µM) in test [4]; 0.25 µg/mL (≈ 0.315 µM) in test [5]; 8 µg/mL (≈ 10.1 µM) in test [6]. Besides, the minimum inhibitory concentration (MIC) in test [7] and in test [8] was 0.125 µg/mL (≈ 0.158 µM) throughout.
